{"source": "patent US20180177147A1", "about": "“METHODS AND COMPOSITIONS FOR CULTIVATING PLANTS AND ARTIFICIAL PLANT SEEDS” (E I DU PONT DE NEMOURS AND COMPANY, priority 2014, published 2018)", "key": {"sugarcane choplets [1]": {"system": "sugarcane choplets", "experiment": "Soil outcomes of unembedded and embedded (F4 paper tube artificial seed) choplets incubated in various media", "format": "in vivo", "settings": "21 hr in bathing solution, MetroMix soil", "description": "This example describes the soil growth advantage conferred by the enclosure or encapsulation of sugarcane choplets in paper tubes with Parafilm™ covers at bottom and top. The choplets were from plantlets produced by a standard plantlet production process or from a hardening treatment (e.g. high CO2) in the temporary immersion Adaptis™ bioreactors. The choplets were incubated in various media. The media were sterile water; LPM; BAP=[…] prepared by solubilizing solid in dimethylsulfoxide to make 1 mg/mL stock then diluted stock solution in water (50 uL to 50 mL final volume) to prepare 1 mg/L working solution; GA3=giberellin 3 prepared by diluting commercial stock solution (1 mg/mL) in water to form a 1 mg/L working solution. The choplets were segregated into 4 groups of at least 50 choplets. Each group of choplets was weighed on a petri dish before addition of the 7 mL of bathing solution: water; LPM; BAP; and GA3. Each dish was covered and the edge was sealed with 3M Micropore™ tape. The petri dishes were secured to a nutator inside a walk-in growth chamber for 21 hr. For each choplet group, either ten (10) or twenty (20) F4 paper seed structures containing MetroMix™ soil and 200 uL water were assembled with triblock top and bottom lids. The structures were transplanted in a flat containing water-saturated MetroMix™ soil such that the top of the seed design is flush with the top of the soil surface. Encapsulating the choplet in an artificial seed provided improvement in soil survival for all media incubation groups except GA3."}, "sugarcane choplets [2]": {"system": "sugarcane choplets", "experiment": "Survival in synthetic soil of choplets from hardened plantlets after one-day immersion in water or hormone media", "format": "in vivo", "settings": "1-day choplet treatment, 40 planted; for % surviving: day 10 in soil; for alive @ day 10: soil, artificial growth chamber", "description": "This example describes choplet growth outcomes in soil (survival; morphology) when the plantlets were hardened by various treatments such as nutrient deprivation or osmoticum exposure. The hardening protocols for the plantlets were gradual (multi-day) acclimation of the tissue to decreasing sucrose and/or to increasing polyethylene glycol 6000 (PEG-6000) in LPM. The hardening treatment was evaluated at two stages: the growth of treated plantlets transplanted to synthetic soil; and the survival of choplets from plantlets in a controlled environment.\nIn another study, three hardening treatments were evaluated but group C hardening treatment was modified: Group C plantlets were grown in LPM for 7 days followed by transfer every two days to a medium containing higher PEG-6000 levels until the medium content had 3% sucrose and 0.2% PEG-6000. At the end of growth in tissue culture (17 days), the plantlets were transplanted to soil.\nThe second test of these treated plantlets was to produce choplets and evaluate the choplets' success when transplanted to synthetic soil (Table 4). Choplets were produced from sugarcane plantlets followed by a one-day immersion in a media of water, a known plant media, or a known plant media or water containing a growth hormone, such as (6-benzylaminopurine (BAP) or gibberellins 3 (GA3)). […] Choplet preparation may comprise plantlet hardening treatment and/or media treatment after formation of a choplet."}, "[3]": {"settings": "choplets in F4 paper tube artificial seeds"}, "[4]": {"settings": "hardening Group B (lowered sucrose)"}}}
{"smiles": "C=C1C[C@]23C[C@@]1(O)CC[C@H]2[C@@]12C=C[C@H](O)[C@@](C)(C(=O)O1)[C@H]2[C@@H]3C(=O)O", "note": "[GA3, gibberellins 3]", "values": [{"measurement": "Surviving on day 6", "setting": "sugarcane choplets [1]; [3]", "result": 20}, {"measurement": "Surviving on day 17 (% surviving)", "setting": "sugarcane choplets [1]; [3]", "result": 30, "unit": "%"}, {"measurement": "Surviving on day 17 (number)", "setting": "sugarcane choplets [1]; [3]", "result": 6}, {"measurement": "Surviving on day 6", "setting": "sugarcane choplets [1]; unembedded choplets", "result": 9}, {"measurement": "Surviving on day 17 (% surviving)", "setting": "sugarcane choplets [1]; unembedded choplets", "result": 29, "unit": "%"}, {"measurement": "Surviving on day 17 (number)", "setting": "sugarcane choplets [1]; unembedded choplets", "result": 4}, {"measurement": "% surviving", "setting": "sugarcane choplets [2]; hardening Group A (LPM)", "result": 10, "unit": "%"}, {"measurement": "alive @ day 10", "setting": "sugarcane choplets [2]; hardening Group A (LPM)", "result": 4}, {"measurement": "% surviving", "setting": "sugarcane choplets [2]; [4]", "result": 25, "unit": "%"}, {"measurement": "alive @ day 10", "setting": "sugarcane choplets [2]; [4]", "result": 10}, {"measurement": "% surviving", "setting": "sugarcane choplets [2]; hardening Group C (PEG-6000)", "result": 38, "unit": "%"}, {"measurement": "alive @ day 10", "setting": "sugarcane choplets [2]; hardening Group C (PEG-6000)", "result": 15}]}
{"smiles": "c1ccc(CNc2ncnc3nc[nH]c23)cc1", "note": "[BAP, 6-benzylaminopurine]", "values": [{"measurement": "Surviving on day 6", "setting": "sugarcane choplets [1]; [3]", "result": 20}, {"measurement": "Surviving on day 17 (% surviving)", "setting": "sugarcane choplets [1]; [3]", "result": 55, "unit": "%"}, {"measurement": "Surviving on day 17 (number)", "setting": "sugarcane choplets [1]; [3]", "result": 11}, {"measurement": "Surviving on day 6", "setting": "sugarcane choplets [1]; unembedded choplets", "result": 6}, {"measurement": "Surviving on day 17 (% surviving)", "setting": "sugarcane choplets [1]; unembedded choplets", "result": 7, "unit": "%"}, {"measurement": "Surviving on day 17 (number)", "setting": "sugarcane choplets [1]; unembedded choplets", "result": 1}, {"measurement": "% surviving", "setting": "sugarcane choplets [2]; hardening Group A (LPM)", "result": 18, "unit": "%"}, {"measurement": "alive @ day 10", "setting": "sugarcane choplets [2]; hardening Group A (LPM)", "result": 7}, {"measurement": "% surviving", "setting": "sugarcane choplets [2]; [4]", "result": 28, "unit": "%"}, {"measurement": "alive @ day 10", "setting": "sugarcane choplets [2]; [4]", "result": 11}, {"measurement": "% surviving", "setting": "sugarcane choplets [2]; hardening Group C (PEG-6000)", "result": 25, "unit": "%"}, {"measurement": "alive @ day 10", "setting": "sugarcane choplets [2]; hardening Group C (PEG-6000)", "result": 10}]}
